# Patent publication US20090036437A1, “PHARMACEUTICAL COMPOSITION COMPRISING PHENOXAZINIUM COMPOUND AS AN ACTIVE INGREDIENT” (priority 2005, published 2009)
# Marks after values point to notes of the source that are not given here.
# Experiments:
# [1] = test system: Plasmodium berghei NK65 strain; assay: in vivo treatment test by oral administration into mouse infected with malaria; settings: for Cure rate (%) / life-elongation effect: oral; for Cure rate (%): 5 days after infection
# Description: This test was carried out in accordance with 4-day suppressive test that is a general in vivo test for the activity of an anti-malaria compound. Rodent malaria protozoa (Plasmodium berghei NK65 strain) were used in this test. Infected blood was prepared by infection with intraperitoneal administration into ICR male mouse (5 weeks age; SPF) and passage culture (subculture) thereafter. Blood was drawn from the vein of a tail of the moue infected with malaria, and its infection ratio was determined. After it was confirmed that the infection ratio had been increased up to an appropriated level (10˜20%), the blood infected with malaria was drawn from the heart of the mouse. The infection ratio and number (cells/mL) of erythrocytes were determined. An uninfected mouse (ICR male, 5 weeks age) was then infected with an injection of the infected erythrocytes so diluted with PBS as to comprise the protozoa of […] per dose (0.2 mL) into the vein of its tail.
# A test sample was prepared by dissolving the test compounds according to the present invention into physiologic saline (Otsuka Pharmaceuticals Industries) to a predetermined concentration. In the case where the compound was insoluble in water, it was dissolved into DMSO or Tween 20 to prepare the test sample. A control group (no drug-administration group) was treated only with physiologic saline. Weight of the mouse was determined so that a dose would comprise 5.0 mg per 1 kg of its weight.
# One group consisted of five mice. The intraperitoneal administration of the test sample started after two hours from the infection with malaria and continued for successive 4 days with a 24-hour interval. After 24 hours from the last administration, blood was drawn from the tail of the infected mouse to prepare a thin-layer smear, and the number of the erythrocytes infected with the malaria protozoa under a microscope with respect to the control group and the test sample groups. Parasitemia, i.e., the infection ratio with the malaria protozoa, was obtained by calculating an average value of the medium three mice except the two mice showing a maximum or minimum inhibition level. A cure rate (suppression) was then calculated from the resulting parasitemia in accordance with the following equation.
# Cure rate: suppression (%)=(b−a)/b×100 • a: Infection ratio of the test sample group; and • b: Infection ratio of the control group.
# The cure rate (%) of the mice after 5 days from the infection with malaria and the treatment with A-1 (60% purity) according to Example 5 (25-100 mg/kg/day, through the oral administration) were shown in TABLE 6. The oral administration, starting after two hours from the infection with malaria, consisted of four times with a 24-hour interval, 12 times with 8-hour interval or single dose.
# The cure rate (%) of the mice after 5 days from the infection with malaria and the treatment with A-1 (100 mg/kg/day, through the oral administration of four times with a 24-hour interval or singe dose) were shown in TABLE 7.
# [2] = mouse, in vivo, po
# [3] = in vitro growth-inhibiting assay of rat L6 cells; assay type: cell-based; settings: rat, L6 cells (rat skeletal myoblast cells); Table 3; 72 h, Alamar Blue; read-out: 50% growth-inhibiting concentration (nM) cytotoxicity L6
structure (smiles),measurement,setting,value
CCN(CC)c1ccc2nc3ccc(=[N+](CC)CC)cc-3oc2c1.[Cl-] [A-1 (60% purity)],mice still alive after 30 days,"[1]; oral 100 mg/kg four times with a 24-hour interval, one mouse died on day 21",three mice of the four mice
same,presence of the protozoa of malaria in blood of surviving mice after 36 days,"[1]; oral 100 mg/kg four times with a 24-hour interval, three surviving mice",No protozoa of malaria was shown to be present in the blood
same,Cure rate (%),"[1]; 12 times with 8-hour interval, 15 mg/kg/dose",>99.99%
same,life-elongation effect,[1]; all treatments of Table 6,significant life-elongation effect
same,Cure rate (%),"[1]; four times with a 24-hour interval, 25 mg/kg/dose",82.3%
same,Cure rate (%),"[1]; four times with a 24-hour interval, 50 mg/kg/dose",98.6%
same,Cure rate (%),"[1]; four times with a 24-hour interval, 90 mg/kg/dose",>99.99%
same,Cure rate (%),"[1]; four times with a 24-hour interval, 100 mg/kg/dose, one of five mice died due to technical error",>99.99* %
same,Cure rate (%),"[1]; single administration, 100 mg/kg/dose",>99.99%
same,reduction in weight or change of the conditions of mice attributed to side effects,[2],No reduction in weight or change of the conditions of mice
CCN(CC)c1ccc2nc3ccc(=[N+](CC)CC)cc-3oc2c1.[Cl-] [A-1 (>95% purity)],Cure rate (%),"[1]; Table 7, four times with 24-hour interval, 100 mg/kg/dose",>99.99%
same,Cure rate (%),"[1]; Table 7, single administration, 100 mg/kg/dose",78.3%
same,life-elongation effect,[1]; all treatments of Table 7,significant life-elongation effect
same,reduction in weight or change of the conditions of mice attributed to side effects,[2],No reduction in weight or change of the conditions of mice
CC[N+](CC)=c1ccc2nc3ccc(N(C)C)cc3oc-2c1 [Compound A-4],EC50 at 72 h,[3],4690 nM
